Measured values: PubChem BioAssay AID179 (DTP/NCI, 2004)
Active and inactive are the calls of the source.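 Rule for the calls: active = compounds giving half or more protection of infected cells from virus-caused growth loss, again on retest; inactive = the rest.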

System: CEM cells HIV-1 protection, formazan growth assay
Experiment: NCI AIDS Antiviral Assay
Details: for IC50: measured here: growth of uninfected CEM cells
Procedure, shortened: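 Protection of CEM cells against HIV-1 was scored from cell growth (soluble formazan) across five concentrations, with parallel uninfected cells. Lack of protection may reflect toxicity.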

`CC(=N/NC(=S)N1CCCCCC1)/C(C)=N\NC(=S)N1CCCCCC1` was tested, and the EC50 was greater than 100 µM and the IC50 was 8.71 µM.

Work on `CC1CCP(=O)(c2ccccc2)C1` (stereo unspecified) yielded an EC50 greater than 1290 µM and an IC50 greater than 1290 µM.

Work on `NC1(N2SC(S)=C3CCCC=C32)CCCCC1` yielded an EC50 of 42.7 µM and an IC50 greater than 200 µM.

`N#C/C(=C\c1c(Cl)cccc1Cl)c1ccc([N+](=O)[O-])cc1` showed an EC50 greater than 200 µM and an IC50 greater than 200 µM.

`O=C(O)CC(NC(=O)/C(=C/c1ccccc1O)NC(=O)c1ccccc1)C(=O)O` (stereo unspecified) gave an EC50 greater than 200 µM and an IC50 of 110 µM.

`Cc1nc2c(ncn2CCO)c(=O)[nH]1` gave an EC50 greater than 200 µM and an IC50 greater than 200 µM.

In the case of `COc1cc2c(cc1O)C1C(O2)c2c(OC)cc3c(c2OC1(C)C)CCC(C)(C)O3` (stereo unspecified), the EC50 is reported as greater than 200 µM and the IC50 is reported as 32.4 µM.

For `CCOC(=O)C1C(c2ccc3c(c2)OCO3)c2c([nH][nH]c2=O)CC1(C)O` (stereo unspecified), the EC50 was greater than 200 µM and the IC50 was greater than 200 µM.

Work on `CN(C)C=Nc1ccn(CCO)c(=O)n1` yielded an EC50 greater than 1200 µM and an IC50 greater than 1200 µM.

Work on `CC(=O)O[C@H]1CCCC[C@H]1c1ccccc1` yielded an EC50 greater than 309 µM and an IC50 greater than 309 µM.

`O=S(=O)(SS(=O)(=O)c1ccc(Cl)cc1)c1ccc(Cl)cc1` was tested, and the EC50 was greater than 93.3 µM and the IC50 was greater than 93.3 µM.

In the case of `O=[N+]([O-])c1cccc(C2=NON(c3ncccn3)C3N=CC=CN23)c1` (stereo unspecified), the EC50 is reported as greater than 5.89 µM and the IC50 is reported as greater than 5.89 µM.

Compound `O=C(O)C12C3CCC(C3)C1(C(=O)O)C1CCC2C1` (stereo unspecified) has an EC50 greater than 1000 µM and an IC50 greater than 1000 µM.

With `CC(=O)N(C(C)=O)c1c(N)n(C)c(=O)[nH]c1=O` the outcome was “inactive”.

For `CC1N=C(SCC(=O)c2ccc(F)cc2)N2C(C)N=C(SCC(=O)c3ccc(F)cc3)N12` (stereo unspecified), the EC50 was greater than 75.9 µM and the IC50 was greater than 75.9 µM.

Compound `NC(=O)c1cc2cc(O)c(O)cc2cn1` has an EC50 greater than 209 µM and an IC50 of 12.6 µM.

`C=C(C)[C@@H]1CC[C@]2(COC(=O)CC(C)(CC)CC(=O)O)CC[C@]3(C)[C@H](CC[C@@H]4[C@@]5(C)CC[C@H](OC(=O)CC(C)(CC)CC(=O)O)C(C)(C)[C@@H]5CC[C@]43C)[C@@H]12` (stereo partly specified) was tested, and the EC50 was greater than 200 µM and the IC50 was 9.55 µM.

In the case of `COc1cc(C2c3cc4c(cc3CCN2C(=O)c2ccccc2)OCO4)cc(OC)c1OC` (stereo unspecified), the EC50 is reported as greater than 200 µM and the IC50 is reported as 13.5 µM.

In the case of `CC(=O)c1cc2c3c(c1)C(=O)CCN3CCC2=O`, the outcome is reported as “inactive”.

Work on `O=c1c2c(oc3cc(OCC4CO4)ccc13)CCC2` (stereo unspecified) yielded an EC50 greater than 200 µM and an IC50 of 50.1 µM.

`O=C1CC23CC4CC(CC(C4)C2O1)C3` (stereo unspecified) was tested, and the EC50 was greater than 200 µM and the IC50 was greater than 200 µM.

`COc1c(C)c(C/C=C(\C)CCCCO[Si](c2ccccc2)(c2ccccc2)C(C)(C)C)c(OC)c(OC)c1OC` was tested, and the EC50 was greater than 200 µM and the IC50 was 93.3 µM.

In the case of `O=C(/C=C/C(=O)c1cccs1)c1cccs1`, the EC50 is reported as greater than 20 µM and the IC50 is reported as 1.1 µM.

Compound `CC1(c2nc3ccccc3[nH]2)CCC(C(N)=O)C(C)(C)O1` (stereo unspecified) has an EC50 greater than 200 µM and an IC50 greater than 200 µM.

Compound `CC(C)(C)OC(=O)N1CCCC1C(=O)NCCNc1ccc(NCCNC(=O)C2CCCN2C(=O)OC(C)(C)C)c2c1C(=O)c1ccccc1C2=O` (stereo unspecified) has an EC50 greater than 151 µM and an IC50 of 6.61 µM.

With `CC(C)(C)c1cc(-c2ccc(-c3cc(C(C)(C)C)c(O)c(C(C)(C)C)c3)cc2)cc(C(C)(C)C)c1O` the EC50 was greater than 100 µM and the IC50 was greater than 100 µM.

Work on `C[C@@]1(Cc2ccccc2)C(=O)N2[C@@H](CO)C(c3ccccc3)O[C@]2(C)c2ccccc21` (stereo partly specified) yielded an EC50 greater than 33.1 µM and an IC50 greater than 33.1 µM.

For `COc1ccc(/C=C/C(=O)c2cc(C)ccc2OC(C)=O)cc1`, the EC50 was greater than 23.4 µM and the IC50 was 15.8 µM.

Compound `CCCc1cc(=O)oc2c3c(c4c(c12)OC(N)=C(C#N)C4c1ccccc1)O[C@H](C)[C@@H](C)C3=O` (stereo partly specified) has an EC50 greater than 200 µM and an IC50 of 8.71 µM.

In the case of `O=[N+]([O-])C(/C=N/Nc1ccccc1)/C=N/Nc1ccccc1`, the EC50 is reported as greater than 24.5 µM and the IC50 is reported as greater than 24.5 µM.

Work on `O=C(CC(=O)Nc1ccccc1Cl)NNC(c1cc(N=Nc2ccc(Br)cc2)ccc1O)P(O)O` (stereo unspecified) yielded an EC50 greater than 100 µM and an IC50 of 1.32 µM.

`CC1CN(CCO)CC(C)O1` (stereo unspecified) showed an EC50 greater than 1580 µM and an IC50 greater than 1580 µM.

With `COC(=O)c1ccccc1C1CN=NC12Cc1c(C)ccc(C)c1C2=O` (stereo unspecified) the EC50 was greater than 200 µM and the IC50 was 155 µM.

`S=C(N/N=C/c1ccccc1)NC12CC3CC(CC(C3)C1)C2` was tested, and the outcome was “inactive”.

`O=C(CCCn1ccnc1[N+](=O)[O-])NCCn1ccnc1` was tested, and the outcome was “inactive”.

`O=C1/C(=C/c2ccc(O)c(O)c2)CC/C1=C\c1ccc(O)c(O)c1` showed an EC50 greater than 200 µM and an IC50 of 10.7 µM.

For `Cc1cc(NC(=O)c2ccc(N=Nc3c(S(=O)(=O)O)cc4cc(NC(=O)c5ccc(N)cc5)ccc4c3O)cc2)ccc1N=Nc1ccc2cc(S(=O)(=O)O)cc(S(=O)(=O)O)c2c1`, the outcome was “active”.

`COc1ccc(OC)c(CCc2cc(OC)ccc2OC)c1` showed an EC50 greater than 200 µM and an IC50 of 1.26 µM.

For `COc1cc2c(cc1OC)[C@@H]([C@H](O)c1ccccc1)NCC2`, the outcome was “inactive”.

In the case of `C=CCN1C(=O)C(c2ccccc2)(c2ccccc2)NC1=S`, the EC50 is reported as greater than 85.1 µM and the IC50 is reported as greater than 85.1 µM.

`Cc1cc2c(c(C=Nc3ccc([N+](=O)[O-])cc3)c1)OC1(C=C2)Oc2ccccc2C(=O)N1C` (stereo unspecified) was tested, and the EC50 was greater than 200 µM and the IC50 was 22.9 µM.
